Assay results: paper PMC6117091, “The C. difficile clnRAB operon initiates adaptations to the host environment in response to LL-37” (PLoS Pathogens, 2018)

Tested on: gene expression in C. difficile 630Δerm
Assay: RNA-seq, genes differentially expressed in LL-37

Structure (SMILES): CC[C@H](C)[C@H](NC(=O)[C@H](CCCCN)NC(=O)[C@H](CCC(=O)O)NC(=O)[C@H](CCCCN)NC(=O)[C@H](CO)NC(=O)[C@H](CCCCN)NC(=O)[C@H](CCCNC(=N)N)NC(=O)[C@H](Cc1ccccc1)NC(=O)[C@H](Cc1ccccc1)NC(=O)[C@H](CC(=O)O)NC(=O)CNC(=O)[C@H](CC(C)C)NC(=O)[C@@H](N)CC(C)C)C(=O)NCC(=O)N[C@@H](CCCCN)C(=O)N[C@@H](CCC(=O)O)C(=O)N[C@@H](Cc1ccccc1)C(=O)N[C@@H](CCCCN)C(=O)N[C@@H](CCCNC(=N)N)C(=O)N[C@H](C(=O)N[C@H](C(=O)N[C@@H](CCC(N)=O)C(=O)N[C@@H](CCCNC(=N)N)C(=O)N[C@H](C(=O)N[C@@H](CCCCN)C(=O)N[C@@H](CC(=O)O)C(=O)N[C@@H](Cc1ccccc1)C(=O)N[C@@H](CC(C)C)C(=O)N[C@@H](CCCNC(=N)N)C(=O)N[C@@H](CC(N)=O)C(=O)N[C@@H](CC(C)C)C(=O)N[C@H](C(=O)N1CCC[C@H]1C(=O)N[C@@H](CCCNC(=N)N)C(=O)N[C@H](C(=O)N[C@@H](CCC(=O)O)C(=O)N[C@@H](CO)C(=O)O)[C@@H](C)O)C(C)C)[C@@H](C)CC)C(C)C)[C@@H](C)CC [LL-37]
- CD630_26650 fold change in LL-37 (2 µg/ml LL-37, BHIS): 0.43
- CD630_26691 fold change in LL-37 (2 µg/ml LL-37, BHIS): 0.50
- CD630_26700 fold change in LL-37 (2 µg/ml LL-37, BHIS): 0.43
- CD630_26710 fold change in LL-37 (2 µg/ml LL-37, BHIS): 0.38
- CD630_26820 (pfo) fold change in LL-37 (2 µg/ml LL-37, BHIS): 2.03
- CD630_26860 fold change in LL-37 (2 µg/ml LL-37, BHIS): 0.41
- CD630_26870 fold change in LL-37 (2 µg/ml LL-37, BHIS): 0.46
- CD630_27090 fold change in LL-37 (2 µg/ml LL-37, BHIS): 2.37
- CD630_27250 fold change in LL-37 (2 µg/ml LL-37, BHIS): 2.07
- CD630_27491 fold change in LL-37 (2 µg/ml LL-37, BHIS): 0.38
- CD630_27500 (agrB) fold change in LL-37 (2 µg/ml LL-37, BHIS): 0.49
- CD630_27640 fold change in LL-37 (2 µg/ml LL-37, BHIS): 0.38
- CD630_27840 (cwp6) fold change in LL-37 (2 µg/ml LL-37, BHIS): 2.30
- CD630_27880 fold change in LL-37 (2 µg/ml LL-37, BHIS): 0.48
- CD630_28770 (fhuB) fold change in LL-37 (2 µg/ml LL-37, BHIS): 0.35
- CD630_28780 (fhuD) fold change in LL-37 (2 µg/ml LL-37, BHIS): 0.30
- CD630_29320 fold change in LL-37 (2 µg/ml LL-37, BHIS): 0.30
- CD630_29330 fold change in LL-37 (2 µg/ml LL-37, BHIS): 0.50
- CD630_29341 fold change in LL-37 (2 µg/ml LL-37, BHIS): 0.29
- CD630_29360 fold change in LL-37 (2 µg/ml LL-37, BHIS): 0.44
- CD630_29400 fold change in LL-37 (2 µg/ml LL-37, BHIS): 0.42
- CD630_29420 fold change in LL-37 (2 µg/ml LL-37, BHIS): 0.41
- CD630_29430 fold change in LL-37 (2 µg/ml LL-37, BHIS): 0.45
- CD630_29440 fold change in LL-37 (2 µg/ml LL-37, BHIS): 0.44
- CD630_29470 fold change in LL-37 (2 µg/ml LL-37, BHIS): 0.30
- CD630_29490 fold change in LL-37 (2 µg/ml LL-37, BHIS): 0.46
- CD630_29620 fold change in LL-37 (2 µg/ml LL-37, BHIS): 2.13
- CD630_29710 (bioY) fold change in LL-37 (2 µg/ml LL-37, BHIS): 0.45
- CD630_30250 fold change in LL-37 (2 µg/ml LL-37, BHIS): 0.47
- CD630_30260 fold change in LL-37 (2 µg/ml LL-37, BHIS): 0.45
- CD630_30270 fold change in LL-37 (2 µg/ml LL-37, BHIS): 0.25
- CD630_30340 fold change in LL-37 (2 µg/ml LL-37, BHIS): 0.38
- CD630_30360 fold change in LL-37 (2 µg/ml LL-37, BHIS): 0.39
- CD630_30720 fold change in LL-37 (2 µg/ml LL-37, BHIS): 0.41
- CD630_30990 fold change in LL-37 (2 µg/ml LL-37, BHIS): 0.40
- CD630_31000 fold change in LL-37 (2 µg/ml LL-37, BHIS): 0.36
- CD630_31150 (bglA4) fold change in LL-37 (2 µg/ml LL-37, BHIS): 0.37
- CD630_31360 (bglA7) fold change in LL-37 (2 µg/ml LL-37, BHIS): 0.35
- CD630_31370 (bglF5) fold change in LL-37 (2 µg/ml LL-37, BHIS): 0.39
- CD630_31750 (cggR) fold change in LL-37 (2 µg/ml LL-37, BHIS): 0.22
- CD630_32090 fold change in LL-37 (2 µg/ml LL-37, BHIS): 0.47
- CD630_32100 fold change in LL-37 (2 µg/ml LL-37, BHIS): 0.48
- CD630_32220 (sdaB) fold change in LL-37 (2 µg/ml LL-37, BHIS): 0.49
- CD630_32570 fold change in LL-37 (2 µg/ml LL-37, BHIS): 0.37
- CD630_32600 (phoU) fold change in LL-37 (2 µg/ml LL-37, BHIS): 0.49
- CD630_32620 (pstA) fold change in LL-37 (2 µg/ml LL-37, BHIS): 0.48
- CD630_33440 fold change in LL-37 (2 µg/ml LL-37, BHIS): 0.39
- CD630_33730 (mgtA) fold change in LL-37 (2 µg/ml LL-37, BHIS): 3.39
- CD630_33740 fold change in LL-37 (2 µg/ml LL-37, BHIS): 3.92
- CD630_33750 (mgtC) fold change in LL-37 (2 µg/ml LL-37, BHIS): 2.96
- CD630_33790 fold change in LL-37 (2 µg/ml LL-37, BHIS): 2.14
- CD630_33911 fold change in LL-37 (2 µg/ml LL-37, BHIS): 2.66
- CD630_35370 (phnH) fold change in LL-37 (2 µg/ml LL-37, BHIS): 0.39
- CD630_36010 fold change in LL-37 (2 µg/ml LL-37, BHIS): 0.35
- CD630_22290 fold change in LL-37 (2 µg/ml LL-37, BHIS (Table S5)): 0.51
- genes induced (sub-MIC LL-37, at least 2-fold, p < 0.05): 107 genes
- genes differentially expressed at least 2-fold (sub-MIC LL-37, p < 0.05): 228 genes
